Legend:
Assay type in all cases: cell-based, mouse
[1] = test system: insulin granules in pancreatic β-cells; experiment: Insulin granule acidification, LSG fluorescence with patch-clamp and confocal imaging
Procedure: FIG. 6. Ins(3,4,5,6)P4 inhibits acidification of insulin granules in pancreatic β-cells. FIG. 6A, Representative time-courses for intragranular acidification, monitored by increased fluorescence of LSG before and after establishment of the standard whole-cell configuration (see arrow) and the effect of perfusion of intracellular medium (containing 0.4 μM [Ca^2+]free except where “no calcium” is indicated; see Methods) plus either 0 (“control”), 1 or 10 μM Ins(3,4,5,6)P4. FIG. 6B, Mean (±SE) fluorescence changes (n-5-11), during the 60 s that followed establishment of the standard whole-cell configuration, for cells perfused with inositol phosphates as indicated at the base of the bar graph. Where indicated, DIDS (100 μM) were added to the bath solution 30 min prior to patching the cells. Statistical significance was evaluated by Student's unpaired t-test (* P<0.01).
The inositol phosphates used in this study were all purchased from CellSignals Inc (Lexington, Ky.). Insulin granule pH were monitored by combining the patch-clamp technique with confocal imaging. Pancreatic β-cells, isolated and cultured on glass coverslips for 2-24 h, were voltage clamped at −70 mV, as previously described (B9). LysoSensor-Green™ DND-189 (1 μM; Molecular Probes, Leiden, The Netherlands) was added during the last 30 min of cell culture and was also included in the extracellular buffer (B9) that continuously perfused the experimental chamber. All LSG experiments were performed at 20° C. to prevent exocytosis that otherwise interfered with the optical measurements (15). LSG fluorescence was excited using the 488 nm-line of a Zeiss 510 confocal microscope. The emitted light was collected with a 63×/1.3 NA oil objective and a >505 nm filter. Laser scanning was performed with low pixel resolution (128×128) and with 6 s intervals to minimize photo-bleaching. After gigaseal formation, it was ascertained that LSG fluorescence was stable for at least 30 s before the experiment commenced. The intracellular electrode solution contained: 125 mM K-glutamate, 10 mM KCl, 1 0 mM NaCl, 1 mM MgCl2, 5 mM HEPES, 3 mM Mg-ATP, 0.1 mM cAMP, 10 mM EGTA and 7 mM CaCl2 (˜0.4 μM free [Ca^2+]I; pH 7.2 with KOH). In some experiments, marked “no calcium”, there was no added Ca^2+, and the concentration of EGTA was 50 μM. Whole-cell capacitance measurements (at 33° C.) were made with the cells clamped at −70 mV, and the standard whole-cell configuration was established at t=0. Capacitance recordings were made using an EPC-7 patch-clamp amplifier equipped with the software Pulse (version 8.4 and later) and the X-chart extension (HEKA Elektronik, Lambrecht/Pfalz, Germany) (B9).

[2] = test system: insulin granules in pancreatic β-cells; experiment: CCCP-mediated de-acidification of insulin granules, LSG fluorescence
Procedure: FIG. 7A, Representative confocal images of LSG fluorescence immediately before (zero) and 60 s after perfusion of cells with intracellular buffer supplemented with 100 μM of the protonophore, CCCP, in the absence or presence of 10 μM Ins(3,4,5,6)P4. FIG. 7B, Representative time-courses for changes in LSG-fluorescence ([F/F0] as % of zero time) immediately after establishing a standard whole-cell configuration as in panel A, with intracellular medium (containing 0.4 μM [Ca^2+]free except where “no calcium” is indicated; see Methods) plus 100 μM CCCP, together with either 0 (“control”) or 10 μM Ins(3,4,5,6)P4. FIG. 7C, Mean (±SE) fluorescence changes (n=4-6), during the 60 s that followed establishment of the standard whole-cell configuration, for cells perfused with intracellular medium supplemented with inositol phosphates as indicated at the base of the bar graph ([…]).
The inositol phosphates used in this study were all purchased from CellSignals Inc (Lexington, Ky.). Insulin granule pH were monitored by combining the patch-clamp technique with confocal imaging. Pancreatic β-cells, isolated and cultured on glass coverslips for 2-24 h, were voltage clamped at −70 mV, as previously described (B9). LysoSensor-Green™ DND-189 (1 μM; Molecular Probes, Leiden, The Netherlands) was added during the last 30 min of cell culture and was also included in the extracellular buffer (B9) that continuously perfused the experimental chamber. All LSG experiments were performed at 20° C. to prevent exocytosis that otherwise interfered with the optical measurements (15). LSG fluorescence was excited using the 488 nm-line of a Zeiss 510 confocal microscope. The emitted light was collected with a 63×/1.3 NA oil objective and a >505 nm filter. Laser scanning was performed with low pixel resolution (128×128) and with 6 s intervals to minimize photo-bleaching. After gigaseal formation, it was ascertained that LSG fluorescence was stable for at least 30 s before the experiment commenced. The intracellular electrode solution contained: 125 mM K-glutamate, 10 mM KCl, 1 0 mM NaCl, 1 mM MgCl2, 5 mM HEPES, 3 mM Mg-ATP, 0.1 mM cAMP, 10 mM EGTA and 7 mM CaCl2 (˜0.4 μM free [Ca^2+]I; pH 7.2 with KOH). In some experiments, marked “no calcium”, there was no added Ca^2+, and the concentration of EGTA was 50 μM. Whole-cell capacitance measurements (at 33° C.) were made with the cells clamped at −70 mV, and the standard whole-cell configuration was established at t=0. Capacitance recordings were made using an EPC-7 patch-clamp amplifier equipped with the software Pulse (version 8.4 and later) and the X-chart extension (HEKA Elektronik, Lambrecht/Pfalz, Germany) (B9). […]

[3] = test system: pancreatic β-cells; experiment: Ca2+-induced exocytosis, whole-cell capacitance recordings
Procedure: FIG. 8A, Representative increases in cell capacitance (ΔC), reflecting exocytosis (as is described in Barg et al., J. Cell Sci 114: 2145-2154 (2001)), elicited by intracellular perfusion with intracellular solution (0.4 μM [Ca^2+]free), containing either 0 (“control”) or 10 μM Ins(3,4,5,6)P4. FIG. 8B, Average rates of capacitance increase (ΔC/Δt) during the first minute of recording, as described for FIG. 8A, in 5-17 experiments. FIG. 8C, Representative increases in ΔC, measured under the same conditions as in FIG. 8A, except that the [Ca^2+]free was 1.5 μM. FIG. 8D, Average rates of capacitance increase (ΔC/Δt) during the first minute of recording, as described for FIG. 8C, in 6-11 experiments.
The inositol phosphates used in this study were all purchased from CellSignals Inc (Lexington, Ky.). Insulin granule pH were monitored by combining the patch-clamp technique with confocal imaging. Pancreatic β-cells, isolated and cultured on glass coverslips for 2-24 h, were voltage clamped at −70 mV, as previously described (B9). LysoSensor-Green™ DND-189 (1 μM; Molecular Probes, Leiden, The Netherlands) was added during the last 30 min of cell culture and was also included in the extracellular buffer (B9) that continuously perfused the experimental chamber. All LSG experiments were performed at 20° C. to prevent exocytosis that otherwise interfered with the optical measurements (15). LSG fluorescence was excited using the 488 nm-line of a Zeiss 510 confocal microscope. The emitted light was collected with a 63×/1.3 NA oil objective and a >505 nm filter. Laser scanning was performed with low pixel resolution (128×128) and with 6 s intervals to minimize photo-bleaching. After gigaseal formation, it was ascertained that LSG fluorescence was stable for at least 30 s before the experiment commenced. The intracellular electrode solution contained: 125 mM K-glutamate, 10 mM KCl, 1 0 mM NaCl, 1 mM MgCl2, 5 mM HEPES, 3 mM Mg-ATP, 0.1 mM cAMP, 10 mM EGTA and 7 mM CaCl2 (˜0.4 μM free [Ca^2+]I; pH 7.2 with KOH). In some experiments, marked “no calcium”, there was no added Ca^2+, and the concentration of EGTA was 50 μM. Whole-cell capacitance measurements (at 33° C.) were made with the cells clamped at −70 mV, and the standard whole-cell configuration was established at t=0. […]
The degree of insulin granule acidification in pancreatic β-cells has been proposed to affect their fusogenic potential, thereby influencing the rate of insulin secretion by exocytosis (B9;B16). So we next investigated if the interaction of Ins(3,4,5,6)P4 with insulin granule Cl^− channels affected exocytosis, which we recorded by monitoring capacitance of β-cells with the whole-cell patch-clamp technique (B16). […]

Structure (SMILES) | effect on vesicle acidification ([1]; 100 μM) | effect on rate of CCCP-promoted H+ efflux out of the granule ([2]; 100 μM, 100 μM CCCP) | effect on exocytosis ([3]; 100 μM, 0.4 μM [Ca2+]free) | effect on granule acidification ([1]; 1 μM (resting level)) | reduction of the rate of acidification of the granular interior ([1]; 10 μM perfused into the cell, 0.4 μM [Ca2+]free) | effect on CCCP-induced collapse of the pH gradient ([2]; 1 μM (resting level)) | effect on CCCP-induced H+ flux ([2]; 10 μM, 100 μM CCCP) | effect on exocytosis ([3]; 1 μM, 0.4 μM [Ca2+]free) | effect on rate of exocytosis ([3]; 1.5 μM [Ca2+]free) | inhibition at 10 µM ([3]; Mus musculus, 10 μM, 0.4 μM [Ca2+]free)
O=P(O)(O)OC1[C@@H](OP(=O)(O)O)[C@H](OP(=O)(O)O)C(O)[C@H](OP(=O)(O)O)[C@H]1OP(=O)(O)O (stereo partly shown) [Ins(1,3,4,5,6)P5, inositol 1,3,4,5,6-pentakisphosphate] | neither 100 μM Ins(1,4,5,6)P4 nor 100 μM Ins(1,3,4,5,6)P5 affected | no effect | no effect | – | – | – | – | – | – | –
O=P(O)(O)OC1C(O)C(O)C(OP(=O)(O)O)C(OP(=O)(O)O)C1OP(=O)(O)O (stereo not shown) [Ins(3,4,5,6)P4, inositol 3,4,5,6-tetrakisphosphate] | – | – | – | ineffective | approximately 65% | failed to affect | inhibitory effect | ineffective | did not affect | ~50%

Source: US20060035810A1, “Regulation of ins(3456)p4 signalling by a reversible kinase phosphatase and methods and compositions related thereto” (priority 2002, published 2006)
